In BindingDB's records for patent US9161922 (Case Western Reserve University, 2015):
pIC50: −log10 of the molar value.

What follows are compounds tested against Primary amine oxidase, liver isozyme (Bos taurus, UniProt Q29437) (assay: Inhibition Assay). Settings: pH 7.2; 30 °C.
Experimental: In the following Examples, 0.9 mL aliquots of a solution of candidate inhibitor in 100 mM potassium phosphate buffer, pH 7.2 was mixed bovine plasma amine oxidase (0.1 mL, about […]) and incubated at 30° C. aerobically. Aliquots (0.1 mL) were periodically withdrawn using disposable calibrated Drummond micropipettes and diluted with 1.0 mL of benzylamine (5 mM in 50 mM sodium phosphate buffer, pH 7.2) in a 1 cm quartz cuvette (1.5 mL volume). The rate of oxidation of benzylamine to benzaldehyde was measured by recording the increase in absorbance at 250 nm for 1 minute and compared to the rate of benzylamine oxidation in a companion control solution of enzyme without inhibitor. The concentration of active BPAO was estimated from the rate of benzylamine oxidation. Inhibitory potency values (IC50 values) and partition values for inactivation of BPAO were measured at various times as in indicated in the Tables.

Sequence of Primary amine oxidase, liver isozyme (Q29437 17-762 limits assumed): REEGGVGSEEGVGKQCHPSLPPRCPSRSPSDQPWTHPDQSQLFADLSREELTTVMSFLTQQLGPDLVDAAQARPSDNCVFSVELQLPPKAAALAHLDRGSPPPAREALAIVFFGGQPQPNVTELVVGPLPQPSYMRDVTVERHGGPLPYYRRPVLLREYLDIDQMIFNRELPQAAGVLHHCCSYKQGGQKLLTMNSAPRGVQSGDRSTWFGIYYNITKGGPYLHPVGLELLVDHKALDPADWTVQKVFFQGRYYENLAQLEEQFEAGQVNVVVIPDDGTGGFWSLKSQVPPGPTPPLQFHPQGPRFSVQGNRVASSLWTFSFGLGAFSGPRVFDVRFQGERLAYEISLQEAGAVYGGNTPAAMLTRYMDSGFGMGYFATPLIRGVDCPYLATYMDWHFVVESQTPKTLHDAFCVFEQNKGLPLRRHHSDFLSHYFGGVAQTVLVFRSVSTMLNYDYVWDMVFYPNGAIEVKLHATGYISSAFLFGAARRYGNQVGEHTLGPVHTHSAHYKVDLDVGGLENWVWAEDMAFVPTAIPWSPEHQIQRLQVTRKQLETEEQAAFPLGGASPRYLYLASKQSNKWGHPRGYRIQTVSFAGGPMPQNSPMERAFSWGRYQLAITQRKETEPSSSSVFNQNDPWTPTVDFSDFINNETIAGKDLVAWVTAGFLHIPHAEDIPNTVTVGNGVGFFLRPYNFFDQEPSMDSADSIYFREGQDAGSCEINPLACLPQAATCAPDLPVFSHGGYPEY

Compared with `NCC#CCNCCc1ccccc1` [US9161922, Table 1, Compound 2], `NCCC#CCc1ccccc1` [US9161922, Table 2, Compound 7] is 2.04 log units higher in pIC50: 3.30 for the first, 5.34 for the second. The second is the more potent here.

Compared with `NCC#Cc1ccccc1` [US9161922, Table 1, Compound 3], `NCCC#Cc1ccccc1` [US9161922, Table 2, Compound 3] is 1.72 log units higher in pIC50: 3.15 for the first, 4.87 for the second.

`N#CC#CCN` [US9161922, Table 1, Compound 5] and `NCC#CC#CCN` [US9161922, Table 1, Compound 7] are within 0.2 log units of each other in pIC50: 4.89 for the first, 5.05 for the second.

First: NCC#CCN [US9161922, Table 1, Compound 6]
Second: CC#CCCN [US9161922, Table 2, Compound 2]
The pIC50 of the first is 0.30 log units lower: 4.70 for the first, 5.00 for the second. The second is the more potent here.

Compared with `NC/C=C/CN` [US9161922, Table 1, Compound 8], `NC/C=C(\Cl)CN` [US9161922, Table 1, Compound 9] is 1.92 log units higher in pIC50: 2.70 for the first, 4.62 for the second. The second is the more potent here.

First: NCCC#Cc1cccnc1 [US9161922, Table 2, Compound 6]
Second: CC#CC(CN)c1ccccc1 (stereo not drawn) [US9161922, Table 2, Compound 8]
The pIC50 of the first is 1.47 log units higher: 5.44 for the first, 3.97 for the second. The first is the more potent here.

`CC#CCC(N)c1ccccc1` (stereo not drawn) [US9161922, Table 2, Compound 9] was tested, and the pIC50 was 2.19.
